Laboratory results from US20100081679A1, “DIAMINOPYRIMIDINES AS FUNGICIDES” (Bayer CropScience AG, priority 2007, published 2010).
Marks after values point to notes of the source that are not given here.

Assay: logP determination via retention times, calibrated with unbranched alkan-2-ones
Assay type: physicochemical
Conditions: linear gradient 10% to 95% acetonitrile
[1] = HPLC on reversed-phase C 18, method **: 43° C., 0.1% aqueous phosphoric acid and acetonitrile
[2] = HPLC on reversed-phase C18, method *: 40° C., 0.1% aqueous formic acid and acetonitrile

SMILES | logP [1] | logP [2]
CC(=O)Nc1cc(Nc2ncc(C(F)(F)F)c(NC3CC3)n2)ccc1C [compound 662] | 1.82** | 1.71*;
CC(C)C(=O)Nc1ccc(Nc2ncc(C(F)(F)F)c(NC3CC3)n2)cc1 [compound 663] | – | 2.11*
CSc1ccc(Nc2ncc(Cl)c(NC3CC3)n2)cc1N [compound 664] | – | 1.69*
CCC(C)Sc1cccc(Nc2ncc(Cl)c(NC3CC3)n2)c1 (centres unmarked) [compound 665] | – | 3.69*
OC(c1cccc(Nc2ncc(C(F)(F)F)c(NC3CC3)n2)c1)C(F)(F)F (centres unmarked) [compound 666] | – | 2.69*
OC(c1cccc(Nc2ncc(C(F)(F)F)c(NCC3CC3)n2)c1)C(F)(F)F (centres unmarked) [compound 667] | – | 2.82*
COc1cccc(Nc2ncc(Cl)c(NCC3CC3)n2)c1 [compound 668] | – | 1.97*
COc1ccc(Nc2ncc(Cl)c(NCC3CC3)n2)cc1 [compound 669] | – | 1.73*
CS(=O)(=O)c1ccc(Nc2ncc(Cl)c(NCC3CC3)n2)cc1 [compound 670] | – | 1.97*
CC(=O)N(C)c1ccc(Nc2ncc(Cl)c(NCC3CC3)n2)cc1 [compound 671] | – | 1.58*
O=C(Nc1ccc(Nc2ncc(Cl)c(NCC3CC3)n2)cc1)C(F)(F)F [compound 672] | – | 2.02*
CC(C)(C)NC(=O)c1ccc(Nc2ncc(Cl)c(NCC3CC3)n2)cc1 [compound 673] | – | 2.21*
CSc1ccc(Nc2ncc(Cl)c(NCC3CC3)n2)cc1 [compound 674] | – | 2.18*
O=S(=O)(c1cccc(Nc2ncc(Cl)c(NCC3CC3)n2)c1)N1CCCCC1 [compound 675] | – | 2.16*
CC(C)(C)C(=O)Cc1ccc(Nc2ncc(Cl)c(NCC3CC3)n2)cc1 [compound 676] | – | 2.39*
CCC(=O)c1ccc(Nc2ncc(Cl)c(NCC3CC3)n2)cc1 [compound 677] | – | 2.55*
CC(=O)c1ccc(Nc2ncc(Cl)c(NCC3CC3)n2)cc1 [compound 678] | – | 2.13*
CC(=O)Nc1cc(Nc2ncc(Cl)c(NCC3CC3)n2)ccc1C [compound 679] | – | 1.49*
Oc1ccc(Nc2ncc(Cl)c(NCC3CC3)n2)cc1 [compound 680] | – | 1.36*
Oc1cccc(Nc2ncc(Cl)c(NCC3CC3)n2)c1 [compound 681] | – | 1.49*
Cc1cccc(C)c1Nc1ncc(Cl)c(NCC2CC2)n1 [compound 682] | – | 1.87*
FC(F)(F)c1ccc(Nc2ncc(Cl)c(NCC3CC3)n2)cc1 [compound 684] | – | 3.33*
N#Cc1cccc(Nc2ncc(Cl)c(NCC3CC3)n2)c1 [compound 685] | – | 2.26*

SMILES | logP [1] | logP [2]
COc1ccc(Nc2ncc(Cl)c(NCC3CC3)n2)cc1OC [compound 686] | – | 1.63*
COc1ccccc1Nc1ncc(Cl)c(NCC2CC2)n1 [compound 687] | – | 1.99*
FC(F)(F)Oc1ccc(Nc2ncc(Cl)c(NCC3CC3)n2)cc1 [compound 688] | – | 2.95*
Clc1cnc(Nc2ccc(-c3cscn3)cc2)nc1NCC1CC1 [compound 689] | – | 2.06*
Clc1cc(Cl)cc(Nc2ncc(Cl)c(NCC3CC3)n2)c1 [compound 690] | – | 4.3*
COC(=O)c1ccc(Nc2ncc(Cl)c(NCC3CC3)n2)cc1Cl [compound 691] | – | 3.1*
CCOc1cccc(Nc2ncc(Cl)c(NCC3CC3)n2)c1 [compound 692] | – | 2.21*
NS(=O)(=O)c1cc(Nc2ncc(Cl)c(NCC3CC3)n2)ccc1Cl [compound 693] | – | 1.83*
Oc1ccc(Nc2ncc(Cl)c(NCC3CC3)n2)c(F)c1 [compound 694] | – | 1.46*
Clc1cnc(Nc2ccc3c(c2)OCO3)nc1NCC1CC1 [compound 695] | – | 1.75*
O=C(c1ccc(Nc2ncc(Cl)c(NCC3CC3)n2)cc1)N1CCOCC1 [compound 696] | – | 1.59*
CS(=O)(=O)Nc1ccc(Nc2ncc(Cl)c(NCC3CC3)n2)cc1 [compound 697] | – | 1.51*
CC(C)(C)NC(=O)Cc1cccc(Nc2ncc(Br)c(NC3CC3)n2)c1 [compound 698] | – | 1.94*
CCCOc1cccc(Nc2ncc(C(F)(F)F)c(NC3CC3)n2)c1 [compound 699] | – | 3.92*
COc1cc(Nc2ncc(C(F)(F)F)c(NC3CC3)n2)ccc1Cl [compound 700] | – | 3.59*
CCN(CC)C(=O)c1cccc(Nc2ncc(Cl)c(NC3CC3)n2)c1 [compound 701] | – | 1.86*
CCNC(=O)c1cccc(Nc2ncc(Br)c(NC3CC3)n2)c1 [compound 702] | – | 1.44*
CC(Cl)c1cccc(Nc2ncc(C(F)(F)F)c(NCC3CC3)n2)c1 (centres unmarked) [compound 703] | – | 3.89*
O=C(c1ccc(Nc2ncc(C(F)(F)F)c(NCC3CC3)n2)cc1)N1CCCCC1 [compound 704] | – | 3.04*
CC(O)c1cccc(Nc2ncc(C(F)(F)F)c(NCC3CC3)n2)c1 (centres unmarked) [compound 705] | – | 2.16*
CCCSc1cccc(Nc2ncc(Br)c(NC3CC3)n2)c1 [compound 706] | – | 3.49*
CC(C)Sc1cccc(Nc2ncc(Br)c(NC3CC3)n2)c1 [compound 707] | – | 3.38*
CCSc1cccc(Nc2ncc(Br)c(NC3CC3)n2)c1 [compound 708] | – | 2.92*

SMILES | logP [1] | logP [2]
COCc1cccc(Nc2ncc(Cl)c(NCC3CC3)n2)c1 [compound 709] | – | 1.82*
CCC(=O)Nc1ccc(Nc2ncc(C(F)(F)F)c(NC3CC3)n2)cc1 [compound 710] | – | 1.93*
CCC(=O)Nc1ccc(Nc2ncc(Cl)c(NC3CC3)n2)cc1 [compound 711] | – | 1.24*
N#CCc1cccc(Nc2ncc(Cl)c(NC3CC3)n2)c1 [compound 712] | – | 1.66*
O=C1CCCCN1c1cccc(Nc2ncc(Cl)c(NC3CC3)n2)c1 [compound 713] | – | 1.47*
Clc1cnc(Nc2cccc(-c3ccco3)c2)nc1NC1CC1 [compound 714] | – | 2.54*
C=CCOc1cccc(Nc2ncc(Cl)c(NC3CC3)n2)c1 [compound 715] | – | 2.37*
O=CNc1cccc(Nc2ncc(Br)c(NC3CC3)n2)c1 [compound 716] | – | 1.23*
O=C(Nc1ccccc1)Nc1cccc(Nc2ncc(Cl)c(NC3CC3)n2)c1 [compound 717] | – | 1.93*
CN(C)Cc1cccc(Nc2ncc(Cl)c(NC3CC3)n2)c1 [compound 718] | – | 0.79*
COc1cc(Nc2ncc(C(F)(F)F)c(NC3CC3)n2)cc(OC)c1OC [compound 719] | 2.56** | –
Clc1cnc(Nc2cccc(-n3ccnc3)c2)nc1NC1CC1 [compound 720] | – | 0.91*
COCc1cccc(Nc2ncc(C(F)(F)F)c(NC3CC3)n2)c1 [compound 721] | – | 2.78*
FC(F)c1cnc(Nc2ccccc2)nc1NC1CC1 [compound 722] | – | 1.56*
O=C(c1ccc(Nc2ncc(Cl)c(NC3CC3)n2)cc1)N1CCCCC1 [compound 723] | – | 1.97*
O=C(c1ccc(Nc2ncc(C(F)(F)F)c(NC3CC3)n2)cc1)N1CCCCC1 [compound 725] | – | 2.86*
O=c1ccccn1-c1cccc(Nc2ncc(Cl)c(NC3CC3)n2)c1 [compound 726] | – | 1.39*
Clc1cnc(Nc2cccc(C3CCNCC3)c2)nc1NC1CC1 [compound 727] | – | 0.88*
CCOC(=O)Nc1ccc(Nc2ncc(Br)c(NC3CC3)n2)cc1O [compound 728] | – | 1.53*
CC(C)c1ccc(Nc2ncc(Cl)c(NC3CC3)n2)cc1 [compound 729] | – | 2.54*
Cc1cccc(Nc2ncc(Br)c(NC3CC3)n2)c1 [compound 730] | – | 2.07*
Cc1cccc(Nc2ncc(Cl)c(NC3CC3)n2)c1 [compound 731] | – | 1.93*
CO/N=C(\C)c1cccc(Nc2ncc(Cl)c(NC3CC3)n2)c1 [compound 732] | – | 2.37*

SMILES | logP [1] | logP [2]
O=C1CCCCN1c1cccc(Nc2ncc(Br)c(NC3CC3)n2)c1 [compound 733] | – | 1.55*
CN(c1nc(Nc2ccccc2)ncc1Cl)C1CC1 [compound 734] | 2.7** | –
O=C(c1cccc(Nc2ncc(Cl)c(NC3CC3)n2)c1)N1CCOCC1 [compound 735] | – | 1.33*
C/C(=N/O)c1cccc(Nc2ncc(Cl)c(NC3CC3)n2)c1 [compound 736] | – | 1.52*
CSc1cccc(Nc2ncc(Cl)c(N(C)C3CC3)n2)c1 [compound 738] | 3.59** | –
O=C(Nc1ccccc1)Nc1ccc(Nc2ncc(Cl)c(NC3CC3)n2)cc1 [compound 739] | – | 1.75*
FC(F)(F)c1ccc(Nc2ncc(Br)c(NC3CC3)n2)cc1 [compound 740] | – | 3.33*
N#Cc1cccc(Nc2ncc(Br)c(NC3CC3)n2)c1 [compound 741] | – | 2.26*
COc1ccc(Nc2ncc(Br)c(NC3CC3)n2)cc1OC [compound 742] | – | 1.53*
Brc1ccc(Nc2ncc(Br)c(NC3CC3)n2)cc1 [compound 743] | – | 2.7*
N#Cc1ccc(Nc2ncc(Br)c(NC3CC3)n2)cc1 [compound 744] | – | 2.43*
FC(F)(F)Sc1ccc(Nc2ncc(Br)c(NC3CC3)n2)cc1 [compound 745] | – | 3.9*
CSc1ccc(Nc2ncc(Br)c(NC3CC3)n2)cc1Cl [compound 746] | – | 3.03*
Brc1cnc(Nc2ccc(-c3cscn3)cc2)nc1NC1CC1 [compound 747] | – | 1.99*
FC(F)Oc1ccc(Nc2ncc(Br)c(NC3CC3)n2)cc1 [compound 748] | – | 2.21*
Clc1cc(Cl)cc(Nc2ncc(Br)c(NC3CC3)n2)c1 [compound 749] | – | 4.43*
CCOC(=O)c1cccc(Nc2ncc(Br)c(NC3CC3)n2)c1 [compound 750] | – | 2.4*
CCOc1cccc(Nc2ncc(Br)c(NC3CC3)n2)c1 [compound 751] | – | 2.18*
Brc1cnc(Nc2ccc3c(c2)OCO3)nc1NC1CC1 [compound 752] | – | 1.66*
FC(F)(F)Oc1ccc(Nc2ncc(Br)c(NC3CC3)n2)cc1Cl [compound 753] | – | 4.13*
C=CC(=O)Nc1cccc(Nc2ncc(Br)c(NC3CC3)n2)c1 [compound 754] | – | 1.54*
C=CCNC(=O)c1ccc(Nc2ncc(Br)c(NC3CC3)n2)cc1 [compound 755] | – | 1.73*
